Reference: patent publication US9365574B2, “Soluble guanylate cyclase activators” (Merck Sharp & Dohme Corp., priority 2010, dated 2016)

System: Spontaneously hypertensive rats (SHR)
Test: Acute Efficacy in Spontaneously Hypertensive Rats (SHR), telemetry blood pressure
Format: in vivo, rat
Settings: for Maximum SBP reduction: dose 0.3 mpk
From the text: Acute Efficacy in Spontaneously Hypertensive Rats (SHR)
Spontaneously hypertensive rats (SHR, male, Charles River) were implanted with DSI TA11PA-C40 telemetry device (Data Sciences, Inc., St. Paul, Minn.) under isoflurane or ketamine/metomidine anesthesia. The telemetry unit catheter was inserted into the descending aorta via the femoral artery and the telemetry device was implanted subcutaneously in the left flank area. Animals were allowed to recover from surgery for 14 days before the start of any studies. Blood pressure, heart rate, and activity signals from conscious, freely moving rats were recorded continuously for 30 seconds every 10 minutes. On the day prior to administration of compound, a single oral dose of vehicle (10% transcutol/20% Cremophor/70% water) was administered to all animals to establish baseline control data. The blood pressure lowering efficacy of compound (PO) or vehicle was evaluated following a single oral gavage. Data were collected as hourly averages, and changes in blood pressure were calculated by subtracting control baseline data on an hourly basis. Animals were maintained on normal diet with a 12 hour light-dark cycle.
Maximum peak decreases of systolic blood pressure (SBP) in SHR at a particular P.O. dose (mpk milligrams per kilogram) for the following representative compounds are provided.

Structure (SMILES)	Maximum peak decrease of systolic blood pressure (SBP) in SHR, Category (single oral dose 0.3 mpk P.O.)	other results
CC1(C(=O)NC2CC2)C(=O)Nc2nc(-c3nn(CCC(F)(F)C(F)(F)F)c4ncc(Cl)cc34)nc(N)c21 (stereo not drawn) [Example 268, 4-amino-2-[5-chloro-1-(3,3,4,4,4-pentafluorobutyl)-1H-pyrazolo[3,4-b]pyridin-3-yl]-N-cyclopropyl-5-methyl-6-oxo-6,7-dihydro-5H-pyrrolo[2,3-d]pyrimidine-5-carboxamide]		Maximum peak decrease of systolic blood pressure (SBP) in SHR, Category (single oral dose 0.1 mpk P.O.): B (Category B=SBP in SHRs 25-40 mmHg)
CC1(C(N)=O)C(=O)Nc2nc(-c3nn(CCC(F)(F)C(F)(F)F)c4ncccc34)nc(N)c21 (stereo not drawn) [Example 161, 4-Amino-5-Methyl-6-Oxo-2-[1-(3,3,4,4,4-Pentafluorobutyl)-1H-Pyrazolo[3,4-B]Pyridin-3-yl]-6,7-Dihydro-5H-Pyrrolo[2,3-D]Pyrimidine-5-Carboxamide]	B (Category B=SBP in SHRs 25-40 mmHg)	
CC(C)C1(C(N)=O)C(=O)Nc2nc(-c3nn(CCC(F)(F)C(F)(F)F)c4ncccc34)nc(N)c21 (stereo not drawn) [Example 244, 4-amino-5-(1-methylethyl)-6-oxo-2-(1-(3,3,4,4,4-pentafluorobutyl)-1H-pyrazolo[3,4-b]pyridin-3-yl]-6,7-dihydro-5H-pyrrolo[2,3-d]pyrimidine-5-carboxamide]	C (Category C=SBP in SHRs>40 mmHg)	
CNc1nc(-c2nn(CCC(F)(F)C(F)(F)F)c3ncccc23)nc2c1C(C(=O)NC1CC1)(C1CC1)C(=O)N2 (stereo not drawn) [Example 262, N,5-dicyclopropyl-4-(methylamino)-6-oxo-2-[1-(3,3,4,4,4-pentafluorobutyl)-1H-pyrazolo[3,4-b]pyridin-3-yl]-6,7-dihydro-5H-pyrrolo[2,3-d]pyrimidine-5-carboxamide]	A (Category A=SBP in SHRs<25 mmHg)	
CC1(C(=O)Nc2ccccn2)C(=O)Nc2nc(-c3nn(CCCC(F)(F)F)c4ncccc34)nc(N)c21 (stereo not drawn) [Example 226, 4-amino-5-methyl-6-oxo-N-pyridin-2-yl-2-[1-(4,4,4-trifluorobutyl)-1H-pyrazolo[3,4-b]pyridin-3-yl]-6,7-dihydro-5H-pyrrrolo[2,3-d]pyrimidine-5-carboxamide]	B (Category B=SBP in SHRs 25-40 mmHg)	
CC1(C(=O)NC2CC2)C(=O)Nc2nc(-c3nc(CCC(F)(F)C(F)(F)F)n4ncccc34)nc(N)c21 (stereo not drawn) [Example 251, 4-amino-H-cyclopropyl-5-methyl-6-oxo-2-[7-(3,3,4,4,4-pentafluorobutyl)imidazo[1,5-b]pyridazin-5-yl]-6,7-dihydro-5H-pyrrolo[2,3-d]pyrimidine-5-carboxamide]	C (Category C=SBP in SHRs>40 mmHg)	
CC1(c2nncs2)C(=O)Nc2nc(-c3nn(CCCC(F)(F)F)c4ncccc34)nc(N)c21 (stereo not drawn) [Example 236, 4-amino-5-methyl-5-(1,3,4-thiadiazol-2-yl)-2-[1-(4,4,4-trifluorobutyl)-1H-pyrazolo[3,4-b]pyridin-3-yl]-5,7-dihydro-6H-pyrrolo[2,3-d]pyrimidin-6-one]	B (Category B=SBP in SHRs 25-40 mmHg)	
CC1(C(=O)NC2CC2)C(=O)Nc2nc(-c3nn(CCC(F)(F)F)c4ncccc34)nc(N)c21 (stereo not drawn) [Example 181, 4-Amino-N-Cyclopropyl-5-Methyl-6-Oxo-2-[1-(3,3,3-Trifluoropropyl)-1H-Pyrazolo[3,4-B]Pyridin-3-yl]-6,7-Dihydro-5H-Pyrrolo[2,3-D]Pyrimidine-5-Carboxamide]	B (Category B=SBP in SHRs 25-40 mmHg)	Maximum SBP reduction: 49 ± 2 mmHg
CC1(c2nnc(CC(F)(F)F)o2)C(=O)Nc2nc(-c3nn(CCC(F)(F)C(F)(F)F)c4ncccc34)nc(N)c21 (stereo not drawn) [Example 216, 4-amino-5-methyl-2-[1-(3,3,4,4,4-pentafluorobutyl)-1H-pyrazolo[3,4-b]pyridin-3-yl]-5-[5-(2,2,2-trifluoroethyl)-1,3,4-oxadiazol-2-yl]-5,7-dihydro-6H-pyrrolo[2,3-d]pyrimidin-6-one]		Maximum peak decrease of systolic blood pressure (SBP) in SHR, Category (single oral dose 0.1 mpk P.O.): A (Category A=SBP in SHRs<25 mmHg)
NC(=O)C1(C2CC2)C(=O)Nc2nc(-c3nn(CCCC(F)(F)F)c4ncccc34)nc(N)c21 (stereo not drawn) [Example 247, 4-amino-5-cyclopropyl-6-oxo-2-[1-(4,4,4-trifluorobutyl)-1H-pyrazolo[3,4-b]pyridin-3-yl]-6,7-dihydro-5H-pyrrolo[2,3-d]pyrimidine-5-carboxamide]		Maximum peak decrease of systolic blood pressure (SBP) in SHR, Category (single oral dose 1 mpk P.O.): C (Category C=SBP in SHRs>40 mmHg)
CC1(c2cn(CC3CC3)nn2)C(=O)Nc2nc(-c3nn(CCC(F)(F)F)c4ncccc34)nc(N)c21 (stereo not drawn) [Example 180, 4-Amino-5-[1-(Cyclopropylmethyl)-1H-1,2,3-Triazol-4-yl]-5-Methyl-2-[1-(3,3,3-Trifluoropropyl)-1H-Pyrazolo[3,4-B]Pyridin-3-yl]-5,7-Dihydro-6H-Pyrrolo[2,3-D]Pyrimidin-6-One]	A (Category A=SBP in SHRs<25 mmHg)	Maximum SBP reduction: 18 ± 5 mmHg
C#CC1(C)C(=O)Nc2nc(-c3nn(CCC(F)(F)C(F)(F)F)c4ncccc34)nc(N)c21 (stereo not drawn) [Example 219, 4-amino-5-ethynyl-5-methyl-2-[1-(3,3,4,4,4-pentafluorobutyl)-1H-pyrazolo[3,4-b]pyridin-3-yl]-5,7-dihydro-6H-pyrrolo[2,3-d]pyrimidin-6-one]	C (Category C=SBP in SHRs>40 mmHg)	
CC1(c2nnc(C(F)F)o2)C(=O)Nc2nc(-c3nn(CCC(F)(F)C(F)(F)F)c4ncccc34)nc(N)c21 (stereo not drawn) [Example 212, 4-amino-5-[5-(difluoromethyl)-1,3,4-oxadiazol-2-yl]-5-methyl-2-[1-(3,3,4,4.4-pentafluorobutyl)-1H-pyrazolo[3,4-b]pyridin-3-yl]-5,7-dihydro-6H-pyrrolo(2,3-d]pyrimidin-6-one]		Maximum peak decrease of systolic blood pressure (SBP) in SHR, Category (single oral dose 0.1 mpk P.O.): B (Category B=SBP in SHRs 25-40 mmHg)
Cn1cc(NC(=O)C2(C)C(=O)Nc3nc(-c4nn(CCC(F)(F)C(F)(F)F)c5cc(Cl)ccc45)nc(N)c32)cn1 (stereo not drawn) [Example 217, 4-amino-2-[6-chloro-1-(3,3,4,4,4-pentafluorobutyl)-1H-indazol-3-yl]-5-methyl-N-(1-methyl-1H-pyrazol-4-yl)-6-oxo-6,7-dihydro-5H-pyrrolo[2,3-d]pyrimidine-5-carboxamide]	C (Category C=SBP in SHRs>40 mmHg)	
CNc1nc(-c2nn(CCCC(F)(F)F)c3ncccc23)nc2c1C(C)(C(=O)NC1CC1)C(=O)N2 (stereo not drawn) [Example 264, N-cyclopropyl-5-methyl-4-(methylamino)-6-oxo-2-[1-(4,4,4-trifluorobutyl)-1H-pyrazolo[3,4-b]pyridin-3-yl]-6,7-dihydro-5H-pyrrolo[2,3-d]pyrimidine-5-carboxamide]	B (Category B=SBP in SHRs 25-40 mmHg)	
Cn1cc(C2(C)C(=O)Nc3nc(-c4nn(CCC(F)(F)C(F)(F)F)c5cc(Cl)ccc45)nc(N)c32)cn1 (stereo not drawn) [Example 229, 4-amino-2-[6-chloro-1-(3,3,4,4,4-pentafluorobutyl)-1H-indazol-3-yl]-5-methyl-5-(1-methyl-1H-pyrazol-4-yl)-5,7-dihydro-6H-pyrrolo[2,3-d]pyrimidin-6-one]		Maximum peak decrease of systolic blood pressure (SBP) in SHR, Category (single oral dose 1 mpk P.O.): C (Category C=SBP in SHRs>40 mmHg)
